Data published in US10179148B2, “Keratolytic composition with anti-allergic anti-inflammatory properties” (priority 2003, dated 2019).

System: psoriasis patients
Assay: topical testing of cleansing/topical compositions on psoriasis patients
Type: in vivo, human
Conditions: in cleansing liquid along with gentle surfactants sodium laureth sulfate and ammonium laureth sulfate; psoriasis effected patients; 5 patients
Description: Most of the cleansing agents contain sodium chloride and/or ammonium chloride and/or potassium chloride.
This invention is lead by desire for developing a new and innovative treatment, which can be used in the longer periods of time without side effect associated with other products. The Topical Composition given in the example being used for more than 6 months and also tested on other psoriasis patients with encouraging results.
Though the exact mechanism of action of quaternary ammonium compounds, such as ammonium chloride, and vanilla is not fully understood, actual testing on psoriasis patients have shown encouraging results without side effects associated with steroids and other presently available psoriasis topical applications.

Row | Structure (SMILES) | keratolytic properties (removing scales)
1 | Cl.N [ammonium chloride] | showing keratolytic properties by removing scales
2 | [Cl-].[Na+] [sodium chloride] | not having keratolytic properties
